In PMC8330742, “New benzothieno[2,3-c]pyridines as non-steroidal CYP17 inhibitors: design, synthesis, anticancer screening, apoptosis induction, and in silico ADME profile studies” (Journal of Enzyme Inhibition and Medicinal Chemistry, 2021):
Where two headings read alike, the source gives them in different places.

How the values were obtained:
T-47D = experiment: NCI-60 SRB screen; assay type: cell-based, human; conditions: Homo sapiens, T47D, single dose 10^−5 M, read-out: Growth inhibition (%)
MCF7 = experiment: NCI-60 SRB screen; assay type: cell-based, human; conditions: Homo sapiens, read-out: Growth inhibition (%)
MALME-3M = experiment: NCI-60 SRB screen; assay type: cell-based, human; conditions: Homo sapiens, single dose 10^−5 M, read-out: Growth inhibition (%)
BT-549 = experiment: NCI-60 SRB screen; assay type: cell-based, human; conditions: Homo sapiens, single dose 10^−5 M, read-out: Growth inhibition (%)
RPMI-8226 = experiment: NCI-60 SRB screen; assay type: cell-based; conditions: Homo sapiens, single dose 10^−5 M, read-out: Growth inhibition (%)
HT-29 = experiment: NCI-60 SRB screen; assay type: cell-based; conditions: Homo sapiens, single dose 10^−5 M, read-out: Growth inhibition (%)
PC-3 = experiment: NCI-60 SRB screen; assay type: cell-based, human; conditions: Homo sapiens, single dose 10^−5 M, read-out: Growth inhibition (%)
OVCAR-5 = experiment: NCI-60 SRB screen; assay type: cell-based, human; conditions: Homo sapiens, single dose 10^−5 M, read-out: Growth inhibition (%)
A498 = experiment: NCI-60 SRB screen; assay type: cell-based, human; conditions: Homo sapiens, single dose 10^−5 M, read-out: Growth inhibition (%)
MDA-MB-468 = experiment: NCI-60 SRB screen; assay type: cell-based, human; conditions: Homo sapiens, single dose 10^−5 M, read-out: Growth inhibition (%)
MDA-MB-231/ATCC = experiment: NCI-60 SRB screen; assay type: cell-based, human; conditions: Homo sapiens, single dose 10^−5 M, read-out: Growth inhibition (%)
DU-145 = experiment: NCI-60 SRB screen; assay type: cell-based, human; conditions: Homo sapiens, single dose 10^−5 M, read-out: Growth inhibition (%)
SNB-75 = experiment: NCI-60 SRB screen; assay type: cell-based, human; conditions: Homo sapiens; single dose 10^−5 M; SNB-75, CNS cancer; read-out: Growth inhibition (%)
U251 = experiment: NCI-60 SRB screen; assay type: cell-based, human; conditions: Homo sapiens, U-251; single dose 10^−5 M; U251, CNS cancer; read-out: Growth inhibition (%)
SNB-19 = experiment: NCI-60 SRB screen; assay type: cell-based; conditions: Homo sapiens; single dose 10^−5 M; SNB-19, CNS cancer; read-out: Growth inhibition (%)
SF-539 = experiment: NCI-60 SRB screen; assay type: cell-based, human; conditions: Homo sapiens; single dose 10^−5 M; SF-539, CNS cancer; read-out: Growth inhibition (%)
[1] = single dose 10^−5 M, MCF-7, Breast cancer

SMILES | inhibition at 10 µM (T-47D) [%] | melting point [°C] | inhibition at 10 µM (MCF7; MCF-7, single dose 10^−5 M) [%] | inhibition at 10 µM (MALME-3M) [%] | inhibition at 10 µM (BT-549; BT-549) [%] | inhibition at 10 µM (RPMI-8226; RPMI-8226) [%] | inhibition at 10 µM (HT-29; HT-29) [%] | inhibition at 10 µM (PC-3; PC-3) [%] | inhibition at 10 µM (OVCAR-5; OVCAR-5) [%] | inhibition at 10 µM (A498; A498) [%] | inhibition at 10 µM (MDA-MB-468; MDA-MB-468) [%] | inhibition at 10 µM (MDA-MB-231/ATCC; MDA-MB-231, MDAMB231/ATCC) [%] | inhibition at 10 µM (DU-145; DU-145) [%] | inhibition at 10 µM (T-47D; Breast cancer) [%] | inhibition at 10 µM (MCF7; [1]) [%] | inhibition at 10 µM (MALME-3M; Melanoma) [%] | inhibition at 10 µM (BT-549; BT-549, Breast cancer) [%] | inhibition at 10 µM (RPMI-8226; RPMI-8226, Leukaemia) [%] | inhibition at 10 µM (HT-29; HT-29, Colon cancer) [%] | inhibition at 10 µM (PC-3; PC-3, Prostate cancer) [%] | also measured
O=C1NC(c2cccc([N+](=O)[O-])c2)c2sc3c(F)cccc3c2C1Cl (stereo not drawn) [Compound 4d, 4-Chloro-8-fluoro-1-(3-nitrophenyl)-1,2-dihydro[1]benzothieno[2,3-c] pyridine-3(4H)-one] | 8.7 | 160 to 162 | 8.44 | 4.62 | 3.62 | 9.61 | 2.3 | 3.8 | -3.92 | -0.03 | -8.27 | 5.22 | -8.57 |  |  |  |  |  |  |  | 
N#CC1C(=O)NC(c2cccc([N+](=O)[O-])c2)c2sc3c(F)cccc3c21 (stereo not drawn) [Compound 5d, 4-Cyano-8-fluoro-1-(3-nitrophenyl)-1,2-dihydro[1]benzothieno[2,3-c] pyridin-3(4H)-one] | 20.1 | 180 to 182 | 15.1 | -12.1 | 8.35 | 14 | -2.29 | 13.2 | 1.54 | 17.3 | -6.48 | 19.2 | -10 |  |  |  |  |  |  |  | 
CCN1CCN(C2C(=O)NC(c3cccc([N+](=O)[O-])c3)c3sc4c(F)cccc4c32)CC1 (stereo not drawn) [Compound 6a, 4-(4-Ethylpiperazin-1-yl)-8-fluoro-1-(3-nitrophenyl)-1,2-dihydro[1]benzo thieno[2,3-c]pyridin-3(4H)-one] | -1.25 | 240 to 241 | 0.6 | -3.44 | -0.58 | 4.93 | -2.32 | 9.37 | -3.55 | 0.35 | -7.69 | -0.79 | -10.8 |  |  |  |  |  |  |  | 
O=C1NC(c2cccc([N+](=O)[O-])c2)c2sc3c(F)cccc3c2C1N1CCOCC1 (stereo not drawn) [Compound 6b, 8-Fluoro-4-morpholino-1(3-nitrophenyl)-1,2-dihydro[1]benzothieno[2,3-c]pyridin-3(4H)-one] | 15.4 | 250 to 251 | 10.3 | 0.18 | 1.66 | 14.4 | 3.1 | 10.4 | -6.35 | 13.5 | -3.26 | 7.92 | -9.4 |  |  |  |  |  |  |  | 
O=C1NC(c2cccc([N+](=O)[O-])c2)c2sc3c(F)cccc3c2C1N1CCCCC1 (stereo not drawn) [Compound 6c, 8-Fluoro-1-(3-nitrophenyl)-4-(piperidin-1-yl)-1,2-dihydro[1]benzothieno [2,3-c]pyridin-3(4H)-one] | 8.12 |  | 10.2 | -1.85 | 1.61 | 5.15 | 9 | 8.67 | -1.56 | 7.34 | -9.31 | 0.28 | -9.9 |  |  |  |  |  |  |  | 
O=[N+]([O-])c1cccc(C2NC(Cl)=C(Cl)c3c2sc2c(F)cccc32)c1 (stereo not drawn) [Compound 7a, 3,4-Dichloro-8-fluoro-1-(3-nitrophenyl)-1,2-dihydro[1]benzothieno[2,3-c] pyridine] | 17.7 | 120 to 122 | 5.05 | -2.96 | 0.77 | 11.5 | -1.97 | 3.11 | 3.21 | 3.36 | -4.71 | 8.09 | -4.75 |  |  |  |  |  |  |  | 
CCN1CCN(C2=C(Cl)c3c(sc4c(F)cccc34)C(c3cccc([N+](=O)[O-])c3)N2)CC1 (stereo not drawn) [Compound 8a, 4-Chloro-3–(4-ethylpiperzin-1-yl)-8-fluoro-1-(3-nitrophenyl)-1,2-dihydro [1]benzothieno[2,3-c]pyridine] |  |  |  |  |  |  |  |  |  |  |  |  |  | 11.1 | 4.08 | 1.57 | 9.38 | 15.4 | 2.3 | 7.7 | inhibition at 10 µM (OVCAR-5; OVCAR-5, Ovarian cancer): 1.9%; inhibition at 10 µM (A498; A498, Renal cancer): 0.93%; inhibition at 10 µM (SNB-75): 11.8%; inhibition at 10 µM (MDA-MB-468; MDA-MB-468, Breast cancer): -9.64%; inhibition at 10 µM (U251): 6.16%; inhibition at 10 µM (MDA-MB-231/ATCC; MDA-MB 231/ATCC, Breast cancer): 12%; inhibition at 10 µM (SNB-19): 1.26%; inhibition at 10 µM (SF-539): 4.31%; inhibition at 10 µM (DU-145; DU-145, Prostate cancer): -7.24%
CCN1CCN(C2=C(C#N)c3c(sc4c(F)cccc34)C(c3cccc([N+](=O)[O-])c3)N2)CC1 (stereo not drawn) [Compound 8d, 4-Cyano-3-(4-ethylpiperazin-1-yl)-8-fluoro-1-(3-nitrophenyl)-1,2-dihydro [1]benzothieno[2,3-c]pyridine] |  |  |  |  |  |  |  |  |  |  |  |  |  | 22.3 | 9.44 | -7.54 | 1.51 | 1.72 | -4.51 | 9.1 | inhibition at 10 µM (OVCAR-5; OVCAR-5, Ovarian cancer): -4.1%; inhibition at 10 µM (A498; A498, Renal cancer): 12.1%; inhibition at 10 µM (SNB-75): 8.49%; inhibition at 10 µM (MDA-MB-468; MDA-MB-468, Breast cancer): -2.69%; inhibition at 10 µM (U251): 0.9%; inhibition at 10 µM (MDA-MB-231/ATCC; MDA-MB 231/ATCC, Breast cancer): 19.8%; inhibition at 10 µM (SNB-19): -1.27%; inhibition at 10 µM (SF-539): 6.11%; inhibition at 10 µM (DU-145; DU-145, Prostate cancer): -11.2%
N#CC1=C(N2CCOCC2)NC(c2cccc([N+](=O)[O-])c2)c2sc3c(F)cccc3c21 (stereo not drawn) [Compound 8e, 4-Cyano-3-(4-morpholino)-8-fluoro-1-(3-nitrophenyl)-1,2-dihydro [1]benzothieno[2,3-c]pyridine] |  |  |  |  |  |  |  |  |  |  |  |  |  | -4.79 | -1.68 | -7.29 | 1.14 | 6.66 | -5.64 | 12.3 | inhibition at 10 µM (OVCAR-5; OVCAR-5, Ovarian cancer): 0.99%; inhibition at 10 µM (A498; A498, Renal cancer): 3.17%; inhibition at 10 µM (SNB-75): 7.28%; inhibition at 10 µM (MDA-MB-468; MDA-MB-468, Breast cancer): -11%; inhibition at 10 µM (U251): -2.2%; inhibition at 10 µM (MDA-MB-231/ATCC; MDA-MB 231/ATCC, Breast cancer): 13.4%; inhibition at 10 µM (SNB-19): -0.92%; inhibition at 10 µM (SF-539): 3.33%; inhibition at 10 µM (DU-145; DU-145, Prostate cancer): -12.3%
N#CC1=C(Nc2ccccc2F)NC(c2cccc([N+](=O)[O-])c2)c2sc3c(F)cccc3c21 (stereo not drawn) [Compound 10, 4-Cyano-8-fluoro-3((2-fluorophenyl)amino)-1–(3-nitrophenyl)-1,2-dihydro[1]benzothieno[2,3-c]pyridine] |  |  |  |  |  |  |  |  |  |  |  |  |  | -2.94 | 4.92 | -15.1 | 1.04 | 1.46 | -14.2 | 7.8 | inhibition at 10 µM (OVCAR-5; OVCAR-5, Ovarian cancer): -3.49%; inhibition at 10 µM (A498; A498, Renal cancer): 3.94%; inhibition at 10 µM (SNB-75): 10.1%; inhibition at 10 µM (MDA-MB-468; MDA-MB-468, Breast cancer): -7.35%; inhibition at 10 µM (U251): -9.9%; inhibition at 10 µM (MDA-MB-231/ATCC; MDA-MB 231/ATCC, Breast cancer): 17.4%; inhibition at 10 µM (SNB-19): -3.45%; inhibition at 10 µM (SF-539): 6.04%; inhibition at 10 µM (DU-145; DU-145, Prostate cancer): -8.61%
